Assay [1] has as its system all the cell lines (A549, HCT116^norm, MCF7). The assay is described as follows: Effect of low LEN concentrations alone on cell numbers and viabilities (Example 6.2). In kind it is cell-based, human. As to conditions: LEN alone at 0.1 and 1 μM. As to the method: Median-effect analysis of combination requires the extrapolation of an IC50-value. Where this was not possible, the inventors explored the effect of combining drugs by fixing the concentration of GEM or LEN (modulating agent) and testing its ability to influence the activity of ART (drug partner). […] ART was diluted in growth medium and added to the plates in a range of drug concentrations to allow determination of IC50. The effect on these IC50 values of co-culture with a sub-optimal concentration (˜IC20) of GEM or LEN was then tested. Cell numbers at 72 hr were assessed by the MTT assay as previously described. This enabled the assessment of the nature of any drug-drug interaction by comparing the IC50 for ART in the presence and absence of the combinatorial drug partner.
The lack of a dose-response in the cells rendered the primary model of drug-drug interaction ineffectual for combinations of ART with LEN. For this reason the inventors next tested the ability of LEN to sensitise cells to ART. These combinatorial analyses were performed in all the cell lines using a smaller concentration of LEN (0.1 and 1 μM). These concentrations had little effect on cell numbers and viabilities.

Assay [2] deals with A549 cells. The experiment in a line: MTT proliferation assay, 72 hr (Example 6.2). In kind it is cell-based, human. As to conditions: A549, 72 h, mean ± SD of at least five experiments. The method, then:
(§1) The human cancer cell lines; MCF7 (breast), HCT116 (colon) and A549 (lung) (Cancer Research UK, London, UK), were grown in either DMEM (Sigma) or RPMI (Sigma) media supplemented with 10% foetal bovine serum, 2 mM L-glutamine, 1% penicillin/streptomycin.
(§2) To study the effect of each agent on cell growth, cells growing exponentially were added to 96-well plates at a density of 3×10^4/well. Drugs (0.1-100 μM) were then added to the wells, ensuring an equal volume of 200 μl across the plate. Cell number was measured at 72 hr using a standard methylthiazoletetrazolium (MTT)-based assay without modifications as described previously (Gordi et al., 2004, Toxicol. Lett. 147: 99-107). Briefly, MTT (Sigma) was added to each well to give a working concentration of 0.4 mg/ml, and plates returned to the incubator for a further 1 hr. After this time, the medium was aspirated off, 200 μl of DMSO was then added to each well, and plates agitated gently for 5 min before measuring optical density at 540 nm in each well.
In general terms: Formazan colour is commonly taken as a measure of viable cells.

Assay [3] relates to HCT116^norm cells. The experiment in a line: MTT proliferation assay, 72 hr (Example 6.2). The format is cell-based, human. As to the method:
as §1, §2

In assay [4] the test system is MCF7 cells. The assay is described as follows: MTT proliferation assay, 72 hr (Example 6.2). In kind it is cell-based, human. As to conditions: MCF7, 72 h, mean ± SD of at least five experiments. As to the method: as §1, §2
Assay [5] concerns HCT116^poly cells. The assay is described as follows: MTT proliferation assay, 72 hr (Example 6.2). In kind it is cell-based, human. The conditions noted are these: HCT116^poly (polyploid extended-passage variant). The method, then:
as §2

The subject of assay [6] is HCT116^norm cells. As to conditions: read-out: concentration required to achieve ~50% cell kill, ART and OXP used simultaneously, ART + OXP combination (ratio 1:2.5).
Text: The combination studies followed an approach previously described (Gordi et al., 2004, Toxicol. Lett. 147: 99-107). HCT116^norm, A549, MCF7 and HCT116^poly cells (5×10^4/well) growing exponentially were reset in fresh culture medium and aliquoted into 96-well plates. ART was the primary drug partner and combined with OXP at an equal ratio of their respective IC50 (eg. ½×IC50 of ART was combined with ½×IC50 of OXP). Fixing this ratio also kept constant the amount of one drug respective to the other. For instance, ART was combined with OXP at a constant ratio of 1:2.5. Cells were incubated for 72 hr in a humidified atmosphere with 5% CO2 in air at 37° C. Cell number was assessed by the MTT assay as described previously. The activities of drug combinations were established by comparing optical density readings from the treated wells with the control wells with no drug treatment, and the natures of drug-drug interactions then assessed by calculating a combination index (CI) by using the median-effect equation, where CI-values of 1 indicated additivity; CI<1 indicated synergy and CI>1 indicated antagonism.

Results on 2 molecules are retold here after patent US9226913B2, “Methods of treating cancer using a combination of an immunomodulatory compound and an artemisinin or a derivative thereof” (Celgene Corporation, priority 2010, dated 2016).

Like-named read-outs stand apart in the source and are kept apart here.

Consider `Nc1cccc2c1CN(C1CCC(=O)NC1=O)C2=O` (centres unmarked) [Lenalidomide, 1-oxo-2-(2,6-dioxopiperidin-3-yl)-4-aminoisoindoline], for which the “effect on cell numbers and viabilities” value in assay [1] is listed as “little effect”. Also, the IC50 was above 100 µM in assay [2] (Homo sapiens); above 100 µM in assay [3] (Homo sapiens, 72 h, MTT, mean ± SD of at least five experiments, read-out: IC50); above 100 µM in assay [4] (Homo sapiens).

As for `O=C1[O][Pt]2([NH][C@@H]3CCCC[C@H]3[NH]2)[O]C1=O` [Oxaliplatin, oxaliplatin], the IC50 in assay [5] amounted to 5.8 µM; in assay [6], 1.6 µM; in assay [2], 6.2 ± 0.95 µM; in assay [3] (72 h, MTT, mean ± SD of at least five experiments, listed as OXP, read-out: IC50) it was 5.3 µM; in assay [3] (72 h, MTT, mean ± SD of at least five experiments, read-out: IC50), 4.05 ± 1.8 µM; in assay [3] (single agent, read-out: concentration required to achieve ~50% cell kill, used separately), 4 µM. This molecule showed an IC50 in assay [4] of 6.1 ± 1.1 µM.
